Measurements as given in ChEMBL document CHEMBL1201862, “PubChem BioAssay data set” (2004).
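A five-concentration, 48-hour dose response in 96-well plates underlies each endpoint, interpolated linearly between surrounding concentrations. Abbreviation: GI50, concentration required for 50% inhibition of growth.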 The source made the active and inactive calls. Cut-off read from the data, not from the text of the source: active = GI50 up to about 1.1 µM and inactive = higher.

Assays:
Assay in all cases: NCI tumour cell line growth inhibition, 48 h
A549 = tested on: A549
COLO 205 = tested on: COLO 205
HCT-116 = tested on: HCT-116
HL-60 = tested on: HL-60
HOP-62 = tested on: HOP-62
HT-29 = tested on: HT-29
IGROV-1 = tested on: IGROV-1
KM12 = tested on: KM12
LOX IMVI = tested on: LOX IMVI
MDA-N = tested on: MDA-N
NCI-H522 = tested on: NCI-H522
NCI/ADR-RES = tested on: NCI/ADR-RES
OVCAR-5 = tested on: OVCAR-5
OVCAR-8 = tested on: OVCAR-8
SK-MEL-28 = tested on: SK-MEL-28
SK-MEL-2 = tested on: SK-MEL-2
SW-620 = tested on: SW-620
T47D = tested on: T47D
U-251 = tested on: U-251
UACC-62 = tested on: UACC-62

Measured: GI50

CC1(C)CN=C(Nc2ccc(Cl)cc2)S1
inactive: A549 > 100 µM | COLO 205 > 100 µM | HCT-116 69.5 µM | HL-60 30.5 µM | HOP-62 > 100 µM | HT-29 43.1 µM | IGROV-1 > 100 µM | KM12 90.4 µM | LOX IMVI 78.3 µM | MDA-N > 100 µM | NCI-H522 > 100 µM | NCI/ADR-RES 76.6 µM | OVCAR-5 > 100 µM | OVCAR-8 > 100 µM | SK-MEL-28 > 100 µM | SK-MEL-2 > 100 µM | SW-620 > 100 µM | T47D 42.9 µM | U-251 > 100 µM | UACC-62 78.7 µM

COC(=O)c1ccc(CCc2cc(O)c(Br)cc2O)cc1
inactive: A549 19.5 µM | COLO 205 12.6 µM | HCT-116 5.38 µM | HL-60 1.86 µM | HOP-62 17.6 µM | HT-29 16.8 µM | IGROV-1 14.6 µM | KM12 15.1 µM | LOX IMVI 13.7 µM | MDA-N 15.7 µM | NCI-H522 3.16 µM | NCI/ADR-RES 14.3 µM | OVCAR-5 18.5 µM | OVCAR-8 16 µM | SK-MEL-28 17.5 µM | SK-MEL-2 18.9 µM | SW-620 15 µM | T47D 18.6 µM | U-251 12.6 µM | UACC-62 14.1 µM

CN(Cc1cc(Br)cc(Br)c1O)Cc1c(O)ccc2ccccc12
inactive: A549 17.7 µM | COLO 205 19.1 µM | HCT-116 16.7 µM | HL-60 18.3 µM | HOP-62 18.7 µM | HT-29 14.5 µM | IGROV-1 20.2 µM | KM12 17.2 µM | LOX IMVI 19.8 µM | MDA-N 16.3 µM | NCI-H522 26.7 µM | NCI/ADR-RES 34.6 µM | OVCAR-5 17.6 µM | OVCAR-8 23.8 µM | SK-MEL-28 20 µM | SK-MEL-2 17.8 µM | SW-620 32 µM | T47D 21.9 µM | U-251 19.3 µM | UACC-62 19.7 µM

O=C1O/C(=C(/Cl)c2c3ccccc3cc3ccccc23)c2ccccc21
inactive: A549 37.1 µM | COLO 205 23.2 µM | HCT-116 3.03 µM | HL-60 4.1 µM | HOP-62 29.1 µM | HT-29 13.1 µM | IGROV-1 22.5 µM | KM12 4.02 µM | LOX IMVI 3.33 µM | MDA-N 27.4 µM | NCI-H522 29.8 µM | NCI/ADR-RES 35.2 µM | OVCAR-5 33.2 µM | OVCAR-8 23.4 µM | SK-MEL-28 40.7 µM | SK-MEL-2 15.8 µM | SW-620 30.7 µM | T47D 80.5 µM | U-251 30.5 µM | UACC-62 28.6 µM
